# Square brackets hold non-standard residues; d marks the D form. Ends that are not written are not given here. Peptide text beside a SMILES is read from it. Dmt = Cc1cc(O)cc(C)c1C[C@H](N)C(=O)O; Inp = O=C(O)C1CCNCC1
# How the values were obtained:
# [1] = Oxygen radical absorption capacity (ORAC); settings: peptides 10 µM, AAPH 12 mM, fluorescein; mean ± SEM
# Procedure: The ability of peptides to neutralize the peroxyl radicals was evaluated in ORAC according to the described method. Peptides (20 µL) and fluorescein (120 µL; 70 nM) were placed in a microplate well and pre-incubated for 15 min at 37 °C. Then, 60 µL of 2,2ʹ-azobis (2-amidino-propane) dihydrochloride (AAPH) as a radical generator was added in a final concentration of 12 mM. The fluorescence was read at wavelengths of 458 nm (excitation) and 520 nm (emission) and recorded every minute for 240 min. A blank using phosphate buffer instead of […] and a calibration curve using Trolox as standard (1–8 µM, final concentration) were also carried on in each assay. Final results were presented in µmol of Trolox equivalents/ µM peptide (µmol TE/ µM peptide).
# [2] = Ferric reducing antioxidant power (FRAP); settings: peptides 10 µM, 37 °C, 30 min, absorbance 593 nm; mean ± SEM
# Procedure: FRAP assay adapted to microscale with minor modifications was used to measure the ferric reducing ability of peptides. Acetate buffer (0.3 M, pH 3.6), 2,4,6-Tris(2-pyridyl)-s-triazine (TPTZ, 10 mM prepared in 40 mM HCl), and ferric solutions (20 mM) were freshly mixed at a ratio of 10:1:1 and place in a 96-well microplate. Then, 198 µL of FRAP reagent and 2 µL of the peptide sample was mixed and incubated at 37 °C in the dark for 30 min. The absorbance was measured at 593 nm using a microplate reader (Bioteck, Epoch/2 microplate reader, Winooski, VT, USA). The difference between the absorbance of the test sample and the blank reading was calculated and expressed as µM of FeSO4/g of the peptide. FeSO4 was used as standard.
# SH-SY5Y cells = assay: Mitochondrial membrane potential (JC-1) in 6-OHDA-treated SH-SY5Y cells; type: cell-based, human; settings: 6-OHDA 100 µM, 6 h
# Procedure: Mitochondrial function was assessed by monitoring changes in MMP (∆Ψm) using the fluorescent probe, JC-1 fluorescence dye (5,5′,6,6′-tetrachloro-1,1′,3,3′-tetraethyl-imidacarbocyanine iodide, Molecular Probes, T3168, Eugene, Oregon, USA). The assay was performed according to the method described by Silva et al.. Briefly, SH-SY5Y cells were exposed 6 h to 6-OHDA (100 μM) in the presence or absence of peptides. After incubation, cells were washed with ice-cold PBS, and then JC-1 reagent (3 µM, 200 µL) was added for 15 min at 37 °C. Afterwards, JC-1 was removed, and cells were washed with PBS. The formation of JC-1 aggregates (490 nm of excitation and 590 nm of emission) and the monomeric form of JC-1 (490 nm of excitation and 530 nm of emission) was accompanied simultaneously in the plate reader for 30 min. Results were expressed as the ratio of the monomers/aggregates of JC-1 in the percentage of control.
# mTOR = assay: Western blot, mTOR phosphorylation in 6-OHDA-treated SH-SY5Y cells; type: cell-based, human; settings: peptide 1 and 10 µM, 24 h
# Procedure: The neuroblastoma SH-SY5Y cells were grown in a 6-well plate and when 80–90% confluent treated with 6-OHDA (100 µM) for 24 h. Then cells were stimulated with peptides for 2.5, 5, 7.5 and 10 min (for AKT) or 24 h (for mTOR). When needed, a 30 min pre-incubation step with LY 294002 was included before analogs and 6-OHDA addition. Stimulation was terminated by aspiration of the medium. Cells were washed 2 times with ice-cold PBS, and then 200 µL of ice-cold lysis buffer [150 mM NaCl, 20 mM Tris–HCl, glycerol, 5 mM EDTA, 0.5 mM phenylmethylsulphonylfluoride (PMSF), 10% Triton X-100, 100 mM protease inhibitors, pH 7.4] was added. Cells were incubated on ice for 15 min. Lysates were then centrifuged at 12,000×g for 10 min at 4 °C, and the supernatants were used as the total cell lysates. The protein content in the supernatants was quantified using the Bio-Rad protein assay kit. […] Following six washes with TBS-T, the protein bands were detected with the Clarity Western ECL reagent from Bio-Rad. The band intensity was quantified by NIH ImageJ densitometric analysis. For quantification, specific phosphorylation was calculated as the ratio of phosphorylated AKT or mTOR signals to the total Akt or mTOR signal detected. […]
Compound,"ORAC, ability to neutralize the peroxyl radicals [1]","FRAP, ability to reduce iron ions [2]",phosphorylated mTOR compared with the 6-OHDA-injured group (mTOR),other results
"YPLDLF-NH2 [analog 6, Tyr-Pro-Leu-Asp-Leu-Phe-NH2]",3143 ± 164.4 µmol Eq. Trolox/g of peptide,0.87 ± 0.22 µM Eq. FeSO4/g of peptide,–,–
"YPLDLF [R-6, rubiscolin-6]",2789 ± 131.6 µmol Eq. Trolox/g of peptide,1.09 ± 0.20 µM Eq. FeSO4/g of peptide,–,effect on MMP changes caused by the neurotoxin (SH-SY5Y cells; peptide 0.1-10 µM): markedly decreased
"CC(C)C[C@H](NC(=O)C1CCN(C(=O)[C@@H](N)Cc2ccc(O)cc2)CC1)C(=O)N[C@@H](CC(=O)O)C(=O)N[C@@H](CC(C)C)C(=O)N[C@@H](Cc1ccccc1)C(N)=O [analog 7, Tyr-Inp-Leu-Asp-Leu-Phe-NH2] (H-Y[Inp]LDLF-NH2)",–,–,significant increase,–
"Cc1cc(O)cc(C)c1C[C@H](N)C(=O)N1CCC(C(=O)N[C@@H](CC(C)C)C(=O)N[C@@H](CC(=O)O)C(=O)N[C@@H](CC(C)C)C(=O)N[C@@H](Cc2ccccc2)C(=O)O)CC1 [analog 5, Dmt-Inp-Leu-Asp-Leu-Phe-OH] (H-[Dmt][Inp]LDLF-OH)",–,–,significant increase,–
"Cc1cc(O)cc(C)c1C[C@H](N)C(=O)N1CCC[C@H]1C(=O)N[C@@H](CC(C)C)C(=O)N[C@@H](CC(=O)O)C(=O)N[C@@H](CC(C)C)C(=O)N[C@@H](Cc1ccccc1)C(=O)O [analog 1, Dmt-Pro-Leu-Asp-Leu-Phe-OH] (H-[Dmt]PLDLF-OH)",–,–,–,effect on MMP depolarization (SH-SY5Y cells; peptide 10 µM): couldn’t decrease
